From patent US20160040128A1, “METHOD” (PCI BIOTECH AS, priority 2013, published 2016)

How the values were obtained:
[1] = test system: bone-marrow-derived murine DCs; test: In vitro MHC class-I antigen presentation: OVA-pulsed, Amphinex- and light-treated DCs co-cultured with OT-1 CD8 T cells, IFN-γ ELISA; format: cell-based, mouse
Method: The DCs were washed and illuminated for the indicated time intervals before adding 100,000 purified CD8 T cells from OT-1 mice. […] After washing, the DCs were illuminated for 15 seconds.
The antigen OVA (Sigma Aldrich, Buchs, Switzerland) and the photosensitiser Amphinex (TPCS2a, PCI Biotech, Lysaker, Norway) were incubated with DCs using petri dishes. Typically, DCs were pulsed for 2 h with OVA and Amphinex. The DCs were then collected and washed by centrifugation before re-suspension in medium and further incubation on petri dishes for 2 h in Amphinex- and OVA-free medium; this allows removal of Amphinex from the outer plasma membrane. The DCs were then washed, counted and plated in round-bottom 96-well plates (typically 100,000 DCs per well), and the cells were exposed to light (435 nm) using LumiSource® (PCI Biotech) for different time intervals. Sex-matched CD8-purified OT-1 cells were then added to the DC plates at 100,000 cells per well and incubated at 37° C. overnight. The secretion of IFN-γ into supernatants was measured using ELISA according to the protocol from eBioscience (Ready-SET-Go!®, Bender MedSystems, Vienna, Austria).
After removing the photosensitiser and antigen by washing and incubation for another 2 hours, the DCs were transferred to 96-well plates at 100,000 cells per well and treated with light at different time-doses before admixing an equal number of purified OT-1 CD8 T cells. […] Of note, antigen presentation and IFN-γ secretion of soluble OVA was improved by Amphinex alone, but not by light alone (FIG. 1a). To further test the sensitivity of DCs to PCI treatment, equivalent assays were performed using a single light dose of 15 seconds, but a wide range of Amphinex doses (0.0005-0.5 μg/ml), namely 0.003, 0.006, 0.0125, 0.025, 0.05, 0.1 and 0.2 μg/ml.

[2] = test system: Bone-marrow derived murine DCs; test: PCI-induced apoptosis and cell death of DCs, Annexin-V / propidium iodide flow cytometry; format: cell-based; conditions: 0.2 μg/ml Amphinex, 435 nm light 1 to 10 minutes, 2 hours rest at 37° C.
Method: The DCs were then washed and seeded into culture plates and treated with light for various time periods (minutes) as indicated. The cells were cultured for another 2 hours (or overnight) and the viability was analysed by flow cytometry after staining with Annexin-V and propidium iodide (PI). The results are illustrated as representative dotbiots (a) or summarised in histograms (b).
The DC viability was tested 2 hours after the PCI treatment by staining the cells with propidium iodide and Annexin-V to identify necrotic and apoptotic cells, respectively, which were analysed by flow cytometry (FACSCanto from BD Biosciences, San Jose, USA). The analysis was performed using the FlowJo 8.5.2 software from Tree Star, Inc. (Ashland, Oreg.). […] Cytokines were analysed by ELISA from supernatants of 24 hours cultures, and flow cytometry was done on cells after 48 hours incubation. […]
Therefore in a series of experiments, we analysed cell death and apoptosis by flow cytometry after staining of cells with propidium iodide and fluorescence-labelled anti-Annexin-V. A concentration of 0.2 μg/ml Amphinex induced light-dose dependent apoptosis and cell death upon illumination with 435 nm light for 1 to 10 minutes (FIG. 2a); the DCs were rested at 37° C. for 2 hours after light treatment before staining and acquisition. […]

[3] = test system: DCs; test: Activation of DCs: cytokine secretion (TNF-α, IL-6, IL-12, IL-1β) by ELISA; format: cell-based, mouse
Method: (§1) The cells were then washed and cultured in Amphinex- and OVA-free medium for another 2 hours before being treated with Lumisource® light for 3 minutes. The DCs were then cultured overnight before collection of supernatants for analysis of the cytokines TNF-α (a), IL-6 (b), IL-12 (c) and IL-1β (d). To measure the expression of CD80 by flow cytometry, DCs were cultured with 0, 0.1 or 1 μg/ml Amphinex and 0 or 10 μg/ml OVA as indicated (e). The histograms are representative of triplicates and show cells that were gated on viable and CD11c-positive cells. Arrows indicate samples that were treated with light for 3 min.
(§2) The DC viability was tested 2 hours after the PCI treatment by staining the cells with propidium iodide and Annexin-V to identify necrotic and apoptotic cells, respectively, which were analysed by flow cytometry (FACSCanto from BD Biosciences, San Jose, USA). The analysis was performed using the FlowJo 8.5.2 software from Tree Star, Inc. (Ashland, Oreg.). Activation of DCs was further tested by measuring the secretion of TNF-α, IL-6, IL-12 and IL-1β by ELISA (eBioscience) and the expression of MHC I, MHC II, CD40, CD80, CD83 and CD86 by flow cytometry. Briefly, the DCs were incubated for 2 hours with Amphinex or lipopolysaccharide E. coli clone 026:B6 (Sigma Aldrich), washed, incubated for another 2 hours in fresh medium, illuminated for 3 min with Lumisource® light, and incubated. Cytokines were analysed by ELISA from supernatants of 24 hours cultures, and flow cytometry was done on cells after 48 hours incubation. All FACS antibodies were purchased from BD Pharmingen (Basel, Switzerland) or from eBioscience.
We further tested the activation of DCs and their innate immune reactions after PCI treatment. Adjuvants and especially pathogen-associated molecular patterns (PAMPs) typically activate DCs and other antigen presenting cells via stimulation of pathogen recognition receptors such as Toll-like receptors, NOD-like receptors, C-type lectin and mannose receptors. Such activation then is typically characterised by secretion cytokines important for stimulation and regulation of further innate as well as adoptive immune responses. […] Although weak, the adjuvant effect with regard to IL-6 seemed light dependent, as IL-6 secretion was not increased by Amphinex or light alone, but only by their combination. However, the effect was much weaker than after stimulation of DCs with 1 μg/ml lipopolysaccharide (LPS). While stimulation of TNF-α and IL-6 secretion characterises the general adjuvant potential of a compound or a treatment, stimulation of IL-12 and IL-1β illustrates the potential to trigger Th1 T-cell responses and inflammasome, respectively.

[4] = test system: DCs; test: Activation of DCs: surface marker expression by flow cytometry; format: cell-based, mouse
Method: as §1, §2
DC constitutively expressed the co-stimulatory molecules CD80 and CD86 (FIG. 3e; CD80 only shown). […] The expression of CD40, MHC I and MHC II was not affected by Amphinex treatment (not shown).

[5] = PCI treatment: 1 μg/ml Amphinex plus 3 min light
[6] = PCI treatment: 1 μg/ml Amphinex plus 3 min light, measured after 22 hours incubation

Disulfonated tetraphenyl chlorin [Amphinex]
immune responses (IFN-γ secretion), 0.05 μg/ml compared with 0.2 μg/ml Amphinex ([1]; 0.05 vs 0.2 μg/ml Amphinex): stronger immune responses
antigen presentation (IFN-γ secretion by OT-1 CD8 T cells) ([1]; Amphinex 0.025 and 0.05 μg/ml, light 15 seconds): facilitated antigen presentation
antigen presentation and IFN-γ secretion of soluble OVA ([1]; Amphinex alone, without light): improved
antigen presentation ([1]; Amphinex combined with high light doses): clear detrimental effect
IFN-γ secretion by OT-1 CD8 T cells ([1]; Amphinex doses higher than 0.05 μg/ml, light 15 seconds): declined
MHC-1 antigen presentation as measured by IFN-γ secretion ([1]; DCs pulsed 2 h with OVA with 0.05 or 0.2 μg/ml Amphinex vs OVA only, IFN-γ after 24 hours): significantly increased
amount of cells dying [2]: 50-60%
apoptotic cells [2]: approx. 20%
IL-6 secretion ([3]; Amphinex alone, without light): not increased
cytokine-stimulating (adjuvant) effect compared with 1 μg/ml lipopolysaccharide (LPS) ([3]; PCI treatment (Amphinex plus light) vs 1 μg/ml LPS): much weaker
IL-1β secretion [3, 5]: neither were notably stimulated
IL-12 secretion [3, 5]: neither were notably stimulated
IL-6 secretion [3, 6]: weak stimulation
TNF-α secretion [3, 6]: weak stimulation
CD40 expression ([4]; Amphinex treatment): not affected
MHC I expression ([4]; Amphinex treatment): not affected
MHC II expression ([4]; Amphinex treatment): not affected
CD80 expression ([4]; Amphinex-treated DCs also treated with light 3 min, with or without OVA, gated on viable CD11c-positive cells): down-regulation
